Read-outs that look alike come from different tables or passages of the source.
Target: T1, FimHtrJ96 (Escherichia coli, UniProt P08191)
T1 construct: coding for the lectin domain of FimH (residues 1-158) with a C-terminal 6-histidine tag; made in house; host or cells: E. coli HB101 (lacking the fim operon), periplasmic extract, plasmid pPKL241
Assay: biochemical
Type: binding, uropathogenic E. coli strain J96
Description: To measure the dissociation constant for FimH:alkyl or aryl-mannoside binding, two different binding assays were developed. The first binding assay uses [^3H]-mannose. The amount of radioactively labeled mannose bound to FimHtrJ96 was measured at six different concentrations of [^3H]-mannose, and a hyperbolic curve fitted to the resulting data (FIG. 1A). FimHtrJ96 corresponds to the carbohydrate (mannose) binding domain of FimH from the uropathogenic E. coli strain J96. The dissociation equilibrium constant was determined from this graph at the concentration of mannose […], which corresponds to occupation of half of the binding sites.
Surface Plasmon Resonance measurements were performed on a Biacore3000™. In a first experiment, the kinetic constants and maximal binding were determined for the FimH-antibody interaction. Next, a fixed concentration of FimH (close to the KD of the FimH-antibody interaction) in combination with varying concentrations of carbohydrate, were used to determine the dissociation equilibrium constant of the FimH-saccharide interaction in a competition experiment. Every measurement was repeated at least twice, including testing the variation between different protein and saccharide batches.
To eliminate the possibility of different binding strength for full length FimH and FimHtrJ96, the binding of alpha-D-mannose to FimC:FimH complex was also measured. […] The inhibition of [^3H]-mannose binding was used in a displacement assay to determine the dissociation constant for a synthetic butyl mannoside by measuring the amount of [^3H]-mannose bound to the protein in the presence of increasing amounts of the inhibitor (FIG. 1B). […] To investigate the effect of sequential addition of methyl groups to the O1 oxygen of D-mannose, a series of alkyl mannosides were synthesized and the dissociation constants determined using the [^3H]-mannose displacement assay and by surface plasmon resonance (Table 1).
Surface Plasmon Resonance measurements were performed on a Biacore3000™. The Fab fragments of a monoclonal antibody against FimH were covalently immobilised via lysines at 1000 Resonance Units (1000 pg ligand/mm^2) in flowcell Fc2 on a CM5 biasensor chip (BIAapplications Handbook, Biacore AB, Uppsala, Sweden). Immobilisation buffer was 100 mM NaAc pH 5.0 with 100 mM NaCl. The reference flowcell Fc1 was left blank.
Binding of FimH to the immobilized antibody was measured with a Biacore 3000 instrument in running buffer (phosphate buffered saline with 0.005% surfactant P20 and 3 mM EDTA), on both flowcells Fc1 and Fc2 simultaneously, at a flow rate of 30 μl/min and at 25° C. Complete dissociation of FimH was done with running buffer before starting a new binding cycle. For all measurements, the association time was 3 minutes, the dissociation time was 30 min. All binding cycles were performed in duplicate, including a zero concentration cycle of FimH (injection of running buffer).
In a first experiment, the kinetic constants, ka and kd, and the maximal binding Rmax, were determined for the FimH-antibody interaction (FimH concentrations (nM): 2000, 1000, 500, 250, 125, 62.5, 31.25, 15.625, 7.818, 3.911, 1.957, 0). All analyses were performed with the BIAeval software. A Langmuir binding isotherm with a 1:1 stoichiometry was fitted to the data, from which the kinetic constants and maximal binding were obtained.
In the next experiment, samples containing a fixed concentration of FimH (close to the KD of the FimH-antibody interaction) in combination with varying concentrations of saccharide, were used to determine the dissociation constant of the FimH-saccharide interaction in a competition experiment. First, ten-fold dilutions of the saccharide solution were used to determine the concentration range for binding of the saccharide to FimH.

[1] = displacement assay, FimHtrJ96, read-out: KD
[2] = quoted in b67 for comparison with docking, method not given, read-out: experimentally determined dissociation constant Kd

T1 sequence (P08191 22-179): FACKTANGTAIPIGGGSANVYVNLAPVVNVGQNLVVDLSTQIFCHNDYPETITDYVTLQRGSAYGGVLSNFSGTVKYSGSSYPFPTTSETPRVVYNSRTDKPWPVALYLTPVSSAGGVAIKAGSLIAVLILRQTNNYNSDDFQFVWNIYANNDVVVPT

| SMILES | ΔG° (Table 1, calculated from KD) [kcal/mol] | Kd [µM] | further results |
| --- | --- | --- | --- |
| CCCCO[C@H]1O[C@H](CO)[C@@H](O)[C@H](O)[C@@H]1O [Butyl man, butyl mannoside] | -9.3 | – | Kd (Table 1, O1 alkyl and aryl mannosides, SPR and displacement binding experiments, read-out: KD): 0.151 µM; Kd ([3H]-mannose binding or displacement assay, FimHtrJ96, read-out: KD): 0.15 µM; binding strength relative to D-mannose (times stronger) (butyl mannoside vs D-mannose, displacement assay): around 15 times |
| O=C[C@H](O)[C@@H](O)[C@@H](O)[C@H](O)CO [galactose] | – | 100000 | ΔG° (Table 2, calculated from KD): -1.4 kcal/mol |
| CCCO[C@H]1O[C@H](CO)[C@@H](O)[C@H](O)[C@@H]1O [Propyl man, propyl mannoside] | -8.9 | 0.3 | – |
| OC[C@H]1O[C@@](CO)(O[C@H]2O[C@H](CO)[C@@H](O)[C@H](O)[C@H]2O)[C@@H](O)[C@@H]1O [sucrose] | – | 12800 | ΔG° (Table 2, calculated from KD): -2.6 kcal/mol |
| Cc1cc(=O)oc2cc(O[C@H]3O[C@H](CO)[C@@H](O)[C@H](O)[C@@H]3O)ccc12 [Umbelliferyl man, 4-Methylumbelliferyl α-mannoside] | -10.8 | – | Kd [1]: 0.012 µM; Kd [2]: 0.02 µM |
| CCCCCCCO[C@H]1O[C@H](CO)[C@@H](O)[C@H](O)[C@@H]1O [Heptyl man, heptyl α-D-mannopyranoside] | -11.3 | 0.005 | ranking of binders (SPR and displacement binding experiments, Table 1 series): best binder |
| O=[N+]([O-])c1ccc(OC2O[C@H](CO)[C@@H](O)[C@H](O)[C@@H]2O)cc1 (stereo partly drawn) [p-Nitrophenyl man, p-Nitrophenyl α-mannoside] | -10.3 | – | Kd [1]: 0.026 µM; Kd [2]: 0.044 µM |
| CCO[C@H]1O[C@H](CO)[C@@H](O)[C@H](O)[C@@H]1O [Ethyl man, ethyl mannoside] | -8.1 | 1.2 | – |
| CCCCCCCCO[C@H]1O[C@H](CO)[C@@H](O)[C@H](O)[C@@H]1O [Octyl man, octyl mannoside] | -10.4 | 0.022 | – |
| CCCCCCO[C@H]1O[C@H](CO)[C@@H](O)[C@H](O)[C@@H]1O [Hexyl man, hexyl mannoside] | -10.9 | 0.01 | – |
| O=C(CO)[C@@H](O)[C@H](O)[C@H](O)CO [fructose] | – | 31 | ΔG° (Table 2, calculated from KD): -6.1 kcal/mol; affinity relative to mannose (times lower) (fructose vs mannose, FimH): 15 times |
| CCCCCO[C@H]1O[C@H](CO)[C@@H](O)[C@H](O)[C@@H]1O [Pentyl man, pentyl mannoside] | -10.4 | 0.025 | – |
| CO[C@H]1O[C@H](CO)[C@@H](O)[C@H](O)[C@@H]1O [Methyl man, Methyl mannoside] | -7.7 | 2.2 | – |
| OC[C@H]1O[C@H](O)C[C@@H](O)[C@@H]1O [2-deoxy α-D-mannose] | – | 300 | ΔG° (Table 2, calculated from KD): -4.8 kcal/mol |

From patent US20080171706A1, “Anti-Adhesive Compounds to Prevent and Treat Bacterial Infections” (priority 2004, published 2008)
